# From patent US20220411419A1, “SMALL MOLECULE MODULATORS OF MHC-I” (RetroVirox, Inc., priority 2018, published 2022)
# Experiments:
# [1] = test system: downmodulation of MHC-I molecules expressed on the surface of HIV infected SupT1 cells; assay: cells; conditions: for EC50: Human immunodeficiency virus 1, SUP-T1, read-out: EC50 for inhibition of MHC-I downmodulation utilizing the R1 parameter; for activity at 100 µM: Human immunodeficiency virus 1, SUP-T1, read-out: R1 @ 100 μM (R1 value for MHC-I downmodulation as % of the vehicle control)
# in vitro = conditions: human, uninfected SupT1 cells
Compound,EC50 [1],CC50 at 48 h (in vitro),activity at 100 µM [1],CC50 (in vitro)
"Cc1ccccc1OCC(=O)N(C)c1nc2c(s1)CCCC2 [Compound 125, N-Methyl-N-(4,5,6,7-tetrahydrobenzo[d]thiazol-2-yl)-2-(o-tolyloxy) acetamide]",0.88 µM,> 125 µM,,
"CN(C(=O)COc1cccc2c1OCCO2)c1nc2c(s1)CCCC2 [Compound 126, 2-((2,3-Dihydrobenzo[b][1,4]dioxin-5-yl)oxy)-N-methyl-N-(4,5,6,7-tetrahydrobenzo[d]thiazol-2-yl)acetamide]",0.8 µM,> 125 µM,,
"COc1ccc(OCC(=O)N(C)c2nc3c(s2)CCCC3)cc1 [Compound 127, 2-(4-Methoxyphenoxy)-N-methyl-N-(4,5,6,7-tetrahydrobenzo[d]thiazol-2-yl) acetamide]",> 25 µM,> 125 µM,,
"CN(C(=O)COc1cccc2cc[nH]c12)c1nc2c(s1)CCCC2 [Compound 128, 2-((1H-Indol-7-yl)oxy)-N-methyl-N-(4,5,6,7-tetrahydrobenzo[d]thiazol-2-yl) acetamide]",> 25 µM,> 125 µM,,
"Cc1c(Cl)cccc1OCC(=O)N(C)c1nc2c(s1)CCCC2 [Compound 129, 2-(3-Chloro-2-methylphenoxy)-N-methyl-N-(4,5,6,7-tetrahydrobenzo[d]thiazol-2-yl)acetamide]",> 25 µM,> 125 µM,,
"COc1ccccc1OCC(=O)N(C)c1nc2c(s1)CCCC2 [Compound 130, 2-(2-Methoxyphenoxy)-N-methyl-N-(4,5,6,7-tetrahydrobenzo[d]thiazol-2-yl) acetamide]",0.38 µM,> 125 µM,,
"COc1cccc(OC)c1OCC(=O)N(C)c1nc2c(s1)CCCC2 [Compound 131, 2-(2,6-Dimethoxyphenoxy)-N-methyl-N-(4,5,6,7-tetrahydrobenzo[d]thiazol-2-yl)acetamide]",2.6 µM,~125 µM,,
"O=C(COc1cccc2[nH]ccc12)Nc1nc2c(s1)CCCC2 [Compound 132, 2-((1H-Indol-4-yl)oxy)-N-(4,5,6,7-tetrahydrobenzo[d]thiazol-2-yl)acetamide]",0.081 µM,> 125 µM,,
"Cc1csc(NC(=O)COc2cccc3[nH]ccc23)n1 [Compound 133, 2-((1H-Indol-4-yl)oxy)-N-(4-methylthiazol-2-yl)acetamide]",1.5 µM,> 100 µM,,
"Cc1csc(NC(=O)COc2cccc3cc[nH]c23)n1 [Compound 134, 2-((1H-Indol-7-yl)oxy)-N-(4-methylthiazol-2-yl)acetamide]",11 µM,> 100 µM,,
"O=C(COc1cccc2c1CCN2)Nc1nc2c(s1)CCCC2 [Compound 135, 2-(Indolin-4-yloxy)-N-(4,5,6,7-tetrahydrobenzo[d]thiazol-2-yl)acetamide]",0.088 µM,> 125 µM,,
"Cc1ccnc(C)c1OCC(=O)N(C)c1nc2c(s1)CCCC2 [Compound 136, 2-((2,4-Dimethylpyridin-3-yl)oxy)-N-methyl-N-(4,5,6,7-tetrahydrobenzo[d]thiazol-2-yl)acetamide]",12 µM,124 µM,,
"Cc1ncccc1OCC(=O)N(C)c1nc2c(s1)CCCC2 [Compound 137, N-Methyl-2-((2-methylpyridin-3-yl)oxy)-N-(4,5,6,7-tetrahydrobenzo[d]thiazol-2-yl)acetamide]",> 25 µM,12 µM,,
"Cc1ccncc1OCC(=O)N(C)c1nc2c(s1)CCCC2 [Compound 138, N-Methyl-2-((4-methylpyridin-3-yl)oxy)-N-(4,5,6,7-tetrahydrobenzo[d]thiazol-2-yl)acetamide]",> 25 µM,> 125 µM,,
"Cc1csc(NC(=O)COc2ccccc2OC(C)C)n1 [Compound 140, 2-(2-isopropoxyphenoxy)-N-(4-methylthiazol-2-yl)acetamide]",14 µM,> 125 µM,,
"Cc1csc(NC(=O)COc2ccccc2OCc2ccccc2)n1 [Compound 141, 2-(2-(Benzyloxy)phenoxy)-N-(4-methylthiazol-2-yl)acetamide]",1.84 µM,> 100 µM,,
"Cc1csc(N(Cc2ccccc2)C(=O)COc2ccccc2OCc2ccccc2)n1 [Compound 142, N-Benzyl-2-(2-(benzyloxy)phenoxy)-N-(4-methylthiazol-2-yl)acetamide]",5.5 µM,> 125 µM,,
"CC1(C)Cc2cccc(OCC(=O)Nc3nc4ccccc4s3)c2O1 [Compound 143, N-(benzo[d]thiazol-2-yl)-2-((2,2-dimethyl-2,3-dihydrobenzofuran-7-yl)oxy)acetamide]",0.41 µM,> 100 µM,,
"CN(C(=O)COc1cccc2c1OC(C)(C)C2)c1nc2ccccc2s1 [Compound 144, N-(benzo[d]thiazol-2-yl)-2-((2,2-dimethyl-2,3-dihydrobenzofuran-7-yl)oxy)-N-methylacetamide]",29 µM,> 90 µM,,
"CC1(C)Cc2cccc(OCC(=O)Nc3nc4c(Cl)cccc4s3)c2O1 [Compound 145, N-(4-Chlorobenzo[d]thiazol-2-yl)-2-((2,2-dimethyl-2,3-dihydrobenzofuran-7-yl)oxy)acetamide]",0.091 µM,> 90 µM,,
"COc1cccc2sc(NC(=O)COc3cccc4c3OC(C)(C)C4)nc12 [Compound 146, 2-((2,2-Dimethyl-2,3-dihydrobenzofuran-7-yl)oxy)-N-(4-methoxybenzo[d]thiazol-2-yl)acetamide]",1.69 µM,> 10 µM,,
"CC1(C)Cc2cccc(OCC(=O)Nc3nc4c(F)cccc4s3)c2O1 [Compound 147, 2-((2,2-Dimethyl-2,3-dihydrobenzofuran-7-yl)oxy)-N-(4-fluorobenzo[d]thiazol-2-yl)acetamide]",0.09 µM,> 90 µM,,
"CC1(C)Cc2cccc(OCC(=O)Nc3nc4cc(F)ccc4s3)c2O1 [Compound 148, 2-((2,2-Dimethyl-2,3-dihydrobenzofuran-7-yl)oxy)-N-(5-fluorobenzo[d]thiazol-2-yl)acetamide]",2 µM,> 100 µM,,
"CC1(C)Cc2cccc(OCC(=O)Nc3nc4ccc(OC(F)(F)F)cc4s3)c2O1 [Compound 149, 2-((2,2-Dimethyl-2,3-dihydrobenzofuran-7-yl)oxy)-N-(6-(trifluoromethoxy)benzo[d]thiazol-2-yl)acetamide]",> 25 µM,> 100 µM,27%,> 100 µM
"CC1(C)Cc2cccc(OCC(=O)Nc3nc(C(=O)N4CCCC4)cs3)c2O1 [Compound 150, 2-((2,2-dimethyl-2,3-dihydrobenzofuran-7-yl)oxy)-N-(4-(pyrrolidine-1-carbonyl)thiazol-2-yl)acetamide]",> 25 µM,> 90 µM,47%,> 90 µM
"CC1(C)Cc2cccc(OCC(=O)Nc3nc(C(=O)N4CCCCC4)cs3)c2O1 [Compound 151, 2-((2,2-Dimethyl-2,3-dihydrobenzofuran-7-yl)oxy)-N-(4-(piperidine-1-carbonyl)thiazol-2-yl)acetamide]",> 25 µM,> 90 µM,51%,> 90 µM
"CC1(C)Cc2cccc(OCC(=O)Nc3nc(C(=O)N4CC[C@H](CO)C4)cs3)c2O1 [Compound 152, (S)-2-((2,2-Dimethyl-2,3-dihydrobenzofuran-7-yl)oxy)-N-(4-(3-(hydroxymethyl)pyrrolidine-1-carbonyl)thiazol-2-yl)acetamide]",> 25 µM,> 90 µM,54%,> 90 µM
